Target: T1, human αSyn (Homo sapiens, UniProt P37840)
T1 construct: made in house
Assay: In vitro αSyn aggregation kinetics by ThT fluorescence
Format: biochemical
Conditions: range of concentrations, singly or in mixtures
Protocol: The ThT fluorescence signal was recorded using a microplate reader (Fluostar OPTIMA Microplate reader, BMG Labtech) with the excitation filter of 440±10 nm and an emission filter of 490±10 nm under intermittent shaking conditions at 37 °C. The kinetic curves were normalized to the fluorescence maxima and the time to reach half-maximum intensity quantified. For atomic force microscopy (AFM) imaging, samples were diluted with ultrapure water to […] total protein concentration, and […] were pipetted onto freshly cleaved mica and left to dry. The samples were imaged with a Modular scanning probe microscope NTEGRA Prima (NT-MDT) in intermittent contact mode in air using a gold-coated single crystal silicon cantilever (spring constant of ˜5.1 N/m) with a resonance frequency of ˜150 kHz. AFM images were processed with Gwyddion open source software.

Row | SMILES | αSyn aggregation kinetics (ThT fluorescence, time to half-max)
1 | CC(=O)[O-].[Na+] [sodium acetate] | did not expedite the aggregation of human αSyn in vitro
2 | CCCC(=O)[O-].[Na+] [sodium butyrate] | did not expedite the aggregation of human αSyn in vitro
3 | CCC(=O)[O-].[Na+] [sodium propionate] | did not expedite the aggregation of human αSyn in vitro
